Experimental data taken from patent US5283243A, “Piperidinoalkylbenzoxazine and piperidinoalkylbenzothiazine compounds, and medicaments containing them” (Kali-Chemie Pharma GmbH, priority 1990, dated 1994).

Experiments:
[1] = system: Histamine-induced anaphylactoid reaction; assay: Inhibition of histamine-induced anaphylactoid cutaneous reaction; type: in vivo, Sprague-Dawley rats; conditions: Rattus norvegicus, 1 h; rats, 2 × 10^-5 mole/kg dose per os, one hour before challenge; read-out: % inhibition of Histamine-induced anaphylactoid reaction
Experimental: (§1) 1. Determining Inhibition of Passive Cutaneous Anaphylaxis (PCA) and Histamine-Induced Anaphylactoid Cutaneous Reaction
(§2) The inhibition of the passive cutaneous anaphylaxis and of the anaphylactoid cutaneous reaction induced by histamine was determined as follows:
To determine the histamine-induced anaphylactoid skin reaction, the animals are injected intradermally in the flank opposite to the antiserum administration with 50 μl of a physiological saline solution containing 0.8 mg/ml histamine directly before the intravenous injection of the solution containing the ovalbumin and the blue dye.
(§3) On the day of the experiment the test substances were dissolved in distilled water which contained 1 vol. % dimethylformamide and 1 vol. % of Tween™ 20 (=polyoxyethylene (20) sorbitan monolaurate). One hour before administration of the ovalbumin challenge, each animal was orally administered 2×10^-5 mole/kg of test substance in 0.5 ml of solution. For comparison purposes a control group received only the solvent.
(§4) The edematous anaphylactic (PCA) and anaphylactoid (histamine-induced) reactions caused by the stimulation of the intravenous ovalbumin injection, which manifested themselves by edema formation, swelling and exudation of blue dye, were evaluated 30 minutes after their initiation by the intravenous ovalbumin injection. This was done by visually determining the extent to which the blue dye emerged at the sites of edema formation. The percentage inhibition of anaphylactic and anaphylactoid reactions induced by the test substances in comparison with the reactions of the control animals not treated with any test substance was determined using comparison scales.
(§5) The results obtained using compounds of formula I according to the foregoing test methods are shown in the following Table A. The example numbers given for the compounds of formula I relate to the subsequent preparative examples.

[2] = system: Passive cutaneous anaphylaxis (PCA); assay: Inhibition of passive cutaneous anaphylaxis (PCA); type: in vivo, Sprague-Dawley rats; conditions: Rattus norvegicus, 1 h; rats, 2 × 10^-5 mole/kg dose per os, one hour before ovalbumin challenge; read-out: % inhibition of Passive cutaneous anaphylaxis (PCA)
Experimental: as §1
The PCA reaction is carried out following the methods described by Goose et al. (J.N. Immunology 16 (1969), 749) and by Martin et al. (Arch. Pharmacol. 316 (1981), 186).
The IgE-rich ovalbumin antiserum used in the test was obtained from immunized Brown-Norway rats. The were immunized with an intraperitoneal injection of a mixture of 100 μg of ovalbumin with a Bordetella pertussis suspension (Vaxicoq™, Manufactured by Institute Merieux, containing 5×10^9 organisms and 1.25 mg Al(OH)3). After 20 days the animals were re-immunized with a further intraperitoneal injection of a solution of 10 μg ovalbumin in 0.5 ml physiological saline solution. After a further four days the blood was removed from the animals and centrifuged. The resulting antiserum was stored at -20° C. until use.
as §2
Sprague-Dawley rats having a body weight of 150-180 g were injected intradermally in one flank with 50 μl of a 1:75 dilution of the IgE-rich ovalbumin antiserum in physiological saline solution to passively sensitize them to ovalbumin.
24 hours after sensitization a solution of 8.25 mg/kg of ovalbumin and 26.4 mg/kg of a blue dye (Evans's Blue) was administered to the rats intravenously according to Martin et al. to trigger passive cutaneous anaphylaxis.
as §3, §4, §5

[3] = system: 5-lipoxygenase (LTC4 release); assay: 5-Lipoxygenase inhibition: LTC4 release from zymosan-stimulated mouse peritoneal macrophage cells; type: cell-based; conditions: Peritoneal macrophage cell; zymosan-stimulated mouse peritoneal macrophage cells, 10^-5 mole/l; read-out: In vitro % inhibition upon release of LTC4
Source text: 5. In vitro Determination of Cyclooxygenase Inhibition and 5-Lipoxygenase Inhibition
After a cell is activated, arachidonic acid contained in cell membranes is metabolized in two ways. Leucotrienes, inter alia leucotriene C4, are formed due to the action of the enzyme 5-lipoxyqenase (=5-LO), and prostanoids are formed due to the action of the enzyme cyclooxygenase (=CO). In in vitro systems these metabolites are secreted from the cell.
To evaluate the cyclooxygenase-inhibiting and 5-lipoxygenase-inhibiting properties of the test substances, their inhibitory activity on the biosynthesis of the arachidonic acid derivatives leucotriene C4 (=LTC4) and 6-keto-prostaglandin F1α (=6-keto-PGF1 α) was determined in vitro on mouse peritoneal macrophage cells. For this purpose the LTC4 and 6-keto-PGF1 α contents of a mouse peritoneal macrophage cell culture medium were determined by zymosan stimulation as described by Scott et al. (J. Exp. Med. 152 (1980), 324-335) and by Fradin et al., (Prostaglandins, 33 (1987), 579-589).
A cell suspension containing peritoneal cells from male mice 8-10 weeks old was obtained in a known manner. A solution marketed under the designation RPMI 1640 (Manufactured by Gibco) was used as the cell culture medium, to which heparin (10 international units/ml) and antibiotics were added according to the procedure of Bonney et al. (Biochem. J. 176 (1978) 422-433). The cell suspension was adjusted to a cell concentration of 10^6 cells per ml and distributed uniformly on titer dishes containing 24 1-ml titer cells (wells). These were kept for two hours in a humidified incubator filled with air enriched with 7% CO2. Cells not adhering to the titer well walls were then removed by washing. The remaining macrophage cells adhering to the walls were incubated for about 12 hours in a suspension medium to which 0.1% of bovine serum albumin (BSA=Bovine Serum Albumin) was added. The suspension medium was then replaced by a Hanks salt solution (=Hanks Balanced Salt Solution=HBSS) with 10 mmoles of Hepes (=hydroxyethylpiperazinoethanesulfonic acid) to which a 0.1% strength solution of the test substances in aqueous, 1% strength dimethylformamide or only the solvent had been added. After 15 minutes the arachidonic acid metabolism was stimulated by adding […] of zymosan (=glycoprotein mixture isolated from cell walls of beer yeast, Saccharomyces cerevisiae, Manufactured by Sigma Chemical Co., Munich) per titre cell. After 2 hours samples of the respective supernatant liquid in each cell were examined for their 6-keto-PGF1α and LTC4 contents by an enzyme immunoassay (=EIA). This EIA is carried out following the method of Pradelles et al. (Analytical Chem. 57 (1985), 1170-1173). The determination of LTC4 and the determination of 6-keto-PGF1α were each carried out on suitable dilutions of the samples (1:50 to 1:250 for the LTC4 determination and 1:250 to 1:1,250 for the 6-keto-PGF1α determination) in comparison with a comparative scale. To determine the inhibiting effect of a 10^-5 molar concentration of the compounds, the amounts of reference eicosanoid were determined, and the inhibiting effect was calculated therefrom in % inhibition compared to the measurements of the zymosan controls.

SMILES: O=C1Nc2ccccc2SC1CCCN1CCC(Nc2nc3ccccc3n2Cc2ccc(F)cc2)CC1 (stereo not drawn) [Example 8]
- inhibition in vivo at 20 µmol/kg [1]: 100%
- inhibition in vivo at 20 µmol/kg [2]: 100%
- inhibition at 10 µM [3]: 40%
